12 compounds from PubChem BioAssay (NCI) can be followed below.

Among the test systems are MALME-3M melanoma; HOP-62 NSCLC; SR leukemia; CCRF-CEM leukemia; HCT-116 colon; MCF7 breast; UO-31 renal; K-562 leukemia; IGROV1 ovarian; OVCAR-5 ovarian.
What all share (assay): NCI anticancer screen, dose series, 48 h

The structures appear in SMILES notation.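 96-well plates; 48 h exposure; 5 concentrations. Endpoints by linear interpolation between flanking doses. Not reached: highest tested concentration assigned. GI50: concentration for 50% inhibition of growth. TGI: concentration producing complete growth inhibition.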

Regarding `COc1cc(/C=C/C(=O)c2c(-c3ccc(F)cc3)nc3sc(C)nn23)cc(OC)c1OC`, the GI50 in the experiment with MALME-3M melanoma was 4.26 µM; in the experiment with HOP-62 NSCLC, 2.28 µM; with SR leukemia it was 1.77 µM; in the experiment with CCRF-CEM leukemia, 2 µM; in the experiment on HCT-116 colon, 1.64 µM; in the experiment with MCF7 breast it was 3.03 µM. In addition, the GI50 with UO-31 renal is 1.95 µM; with K-562 leukemia, 2.61 µM; in the experiment on IGROV1 ovarian, 2.69 µM; in the experiment with OVCAR-5 ovarian, 3.46 µM. Further, the TGI in the experiment on MALME-3M melanoma amounted to 16.9 µM; with HOP-62 NSCLC it was 7.06 µM; in the experiment on SR leukemia it was 5.27 µM; in the experiment on CCRF-CEM leukemia it was 5.95 µM; in the experiment with HCT-116 colon, 3.07 µM; in the experiment with MCF7 breast, 16.5 µM. The TGI with UO-31 renal was 4.94 µM; with K-562 leukemia it was 15 µM; in the experiment on IGROV1 ovarian, 6.71 µM; with OVCAR-5 ovarian it was 9.92 µM.

Regarding `NC(=O)c1cc(Br)ccc1NC(=O)/C=C/c1ccccc1`, the GI50 is 11.6 µM in the experiment on MALME-3M melanoma; 5.47 µM with HOP-62 NSCLC; 0.823 µM in the experiment on SR leukemia; 0.803 µM in the experiment with CCRF-CEM leukemia; 1.24 µM in the experiment with HCT-116 colon; 0.757 µM with MCF7 breast. Also, the GI50 with UO-31 renal was 3.37 µM; with K-562 leukemia, 0.829 µM; in the experiment on IGROV1 ovarian, 2.35 µM; in the experiment on OVCAR-5 ovarian, 10.3 µM. For the same compound, the TGI is above 100 µM with MALME-3M melanoma; above 23.7 µM with HOP-62 NSCLC; above 100 µM in the experiment on SR leukemia; 9.97 µM in the experiment with CCRF-CEM leukemia; above 100 µM in the experiment with HCT-116 colon; above 100 µM with MCF7 breast. The TGI in the experiment on UO-31 renal is above 100 µM; in the experiment on K-562 leukemia it was above 34.4 µM; with IGROV1 ovarian it was above 100 µM; in the experiment with OVCAR-5 ovarian, above 100 µM.

With `CN1C(=O)C2(c3ccccc31)C1CC3C(CO1)C1C2C3(CO)CN1C#N` (centres undefined), the TGI with MALME-3M melanoma, with HOP-62 NSCLC, with SR leukemia, in the experiment on CCRF-CEM leukemia, with HCT-116 colon and in the experiment on MCF7 breast was above 100 µM throughout. Further, the TGI in the experiment with UO-31 renal, in the experiment with K-562 leukemia, in the experiment on IGROV1 ovarian and in the experiment with OVCAR-5 ovarian was above 100 µM each time.

Consider `Cn1cc(C2=C(c3cn(CCCCCO)c4ccccc34)C(=O)NC2=O)c2ccccc21`, for which the GI50 with MALME-3M melanoma is 6.9 µM; in the experiment on HOP-62 NSCLC it was 5.92 µM; in the experiment on SR leukemia, 1.57 µM; with CCRF-CEM leukemia, 3.01 µM; with HCT-116 colon, 4.67 µM; in the experiment on MCF7 breast, 3.56 µM. Besides, the GI50 in the experiment with UO-31 renal was 4.11 µM; in the experiment on K-562 leukemia, 2.16 µM; with IGROV1 ovarian, 8.04 µM; in the experiment with OVCAR-5 ovarian, 11.8 µM. Further, the TGI in the experiment on MALME-3M melanoma is 16.3 µM; with HOP-62 NSCLC, 15.6 µM; in the experiment on SR leukemia it was 11 µM; in the experiment on CCRF-CEM leukemia it was above 16.6 µM; in the experiment on HCT-116 colon it was above 25 µM; with MCF7 breast, above 22.5 µM. For the same compound, the TGI in the experiment on UO-31 renal is 12.9 µM; in the experiment with K-562 leukemia, above 25 µM; in the experiment on IGROV1 ovarian it was 17.9 µM; in the experiment with OVCAR-5 ovarian, above 25 µM.

As to `[Cu+2].[NH-]C(CC(=O)O)C(=O)O.[NH-]C(CC(=O)O)C(=O)O` (centres undefined), the GI50 with MALME-3M melanoma is above 100 µM; with HOP-62 NSCLC, above 100 µM; in the experiment on SR leukemia, above 100 µM; in the experiment on CCRF-CEM leukemia, 0.929 µM; in the experiment with HCT-116 colon it was above 100 µM; with MCF7 breast, 52.3 µM. Also, the GI50 with UO-31 renal, in the experiment on K-562 leukemia, in the experiment on IGROV1 ovarian and with OVCAR-5 ovarian was above 100 µM each time. Further, the TGI with MALME-3M melanoma, in the experiment on HOP-62 NSCLC, in the experiment on SR leukemia, with CCRF-CEM leukemia, in the experiment with HCT-116 colon and with MCF7 breast was above 100 µM in each case. Besides, the TGI with UO-31 renal, in the experiment on K-562 leukemia, with IGROV1 ovarian and with OVCAR-5 ovarian was above 100 µM in each case.

In the case of `O=[N+]([O-])c1oc2ccc3ccccc3c2c1CCO`, the TGI in the experiment on MALME-3M melanoma is 3.84 µM; in the experiment with HOP-62 NSCLC, above 67.1 µM; in the experiment on SR leukemia it was 3.23 µM; in the experiment on CCRF-CEM leukemia, 39.9 µM; with HCT-116 colon, above 29.7 µM; in the experiment with MCF7 breast, 29.5 µM. The TGI in the experiment with UO-31 renal is 3.89 µM; in the experiment with K-562 leukemia it was above 100 µM; in the experiment on IGROV1 ovarian, 3.56 µM; in the experiment on OVCAR-5 ovarian, 34.9 µM.

For the compound `O=C(O)Cc1ccc(N=Nc2c(O)c(C(=O)O)cc3ccccc23)cc1`, the TGI with MALME-3M melanoma, in the experiment on HOP-62 NSCLC, with SR leukemia, in the experiment on CCRF-CEM leukemia, with HCT-116 colon and in the experiment on MCF7 breast was above 100 µM each time. The TGI in the experiment with UO-31 renal, with K-562 leukemia, with IGROV1 ovarian and in the experiment on OVCAR-5 ovarian was above 100 µM in each case.

Take `CC(C)Cc1ccc(C(C)C(=O)NCc2ccc(Cn3c(=O)sn(CCCI)c3=O)cc2)cc1` (centres undefined): the GI50 with MALME-3M melanoma is 1.41 µM; in the experiment with HOP-62 NSCLC, 1.53 µM; with SR leukemia, 0.364 µM; in the experiment with CCRF-CEM leukemia it was 0.279 µM; with HCT-116 colon it was 0.134 µM; in the experiment with MCF7 breast it was 0.397 µM. The GI50 with UO-31 renal was 0.407 µM; in the experiment on K-562 leukemia, 0.388 µM; in the experiment on IGROV1 ovarian it was 0.453 µM; with OVCAR-5 ovarian it was 1.39 µM. Also, the TGI is 2.8 µM in the experiment on MALME-3M melanoma; 3.6 µM with HOP-62 NSCLC; above 100 µM with SR leukemia; above 100 µM in the experiment on CCRF-CEM leukemia; 0.393 µM in the experiment with HCT-116 colon; 2.03 µM in the experiment with MCF7 breast. The TGI was 1.49 µM in the experiment on UO-31 renal, above 100 µM in the experiment on K-562 leukemia, 1.38 µM with IGROV1 ovarian and 2.84 µM in the experiment on OVCAR-5 ovarian.

Turning to `Cc1ccccc1C(C(=O)NC1CCCCC1)N(C(=O)CNc1ncccc1F)c1cccc(F)c1` (centres undefined), the GI50 with MALME-3M melanoma was above 100 µM; in the experiment with HOP-62 NSCLC, 14.8 µM; with SR leukemia it was above 100 µM; in the experiment on CCRF-CEM leukemia it was above 100 µM; with HCT-116 colon, 96.9 µM; in the experiment on MCF7 breast, above 100 µM. Further, the GI50 in the experiment with UO-31 renal was above 100 µM; in the experiment on K-562 leukemia it was above 100 µM; with IGROV1 ovarian, above 80 µM; with OVCAR-5 ovarian, above 100 µM. The TGI in the experiment on MALME-3M melanoma is above 100 µM; in the experiment with HOP-62 NSCLC, above 64.3 µM; with SR leukemia, above 100 µM; in the experiment on CCRF-CEM leukemia it was above 100 µM; with HCT-116 colon, above 100 µM; in the experiment on MCF7 breast it was above 100 µM. The TGI in the experiment on UO-31 renal, in the experiment with K-562 leukemia, with IGROV1 ovarian and in the experiment on OVCAR-5 ovarian was above 100 µM in each case.

Take `Cc1sc2c(c1C)C(c1ccc(Cl)cc1)=N[C@@H](CC(=O)NCCCN1CCN(C)CC1)c1nnc(C)n1-2`: the GI50 in the experiment on MALME-3M melanoma was 0.992 µM; in the experiment on HOP-62 NSCLC, 0.352 µM; in the experiment with SR leukemia it was 0.108 µM; in the experiment on CCRF-CEM leukemia, 1.6 µM; in the experiment with HCT-116 colon, 0.579 µM; in the experiment on MCF7 breast it was 0.0564 µM. In addition, the GI50 in the experiment with UO-31 renal is 3.83 µM; in the experiment with K-562 leukemia, 0.299 µM; with IGROV1 ovarian, 0.618 µM; in the experiment with OVCAR-5 ovarian it was 1.99 µM. Also, the TGI with MALME-3M melanoma, with HOP-62 NSCLC, in the experiment with SR leukemia, in the experiment on CCRF-CEM leukemia, with HCT-116 colon and in the experiment with MCF7 breast was above 100 µM in each case. The TGI in the experiment on UO-31 renal, with K-562 leukemia, in the experiment with IGROV1 ovarian and with OVCAR-5 ovarian was above 100 µM each time.

Turning to `CN(C)Cc1c(C(=O)NCCOc2ccc(C(=O)NO)cc2)oc2ccccc12`, the GI50 in the experiment on MALME-3M melanoma was 0.0709 µM; with HOP-62 NSCLC it was 0.247 µM; in the experiment with SR leukemia it was 0.203 µM; in the experiment with CCRF-CEM leukemia it was 0.135 µM; in the experiment on HCT-116 colon, 0.0705 µM; with MCF7 breast, 0.261 µM. The GI50 with UO-31 renal was 0.296 µM; in the experiment with K-562 leukemia, 0.307 µM; in the experiment on IGROV1 ovarian, 0.438 µM; in the experiment with OVCAR-5 ovarian, 0.115 µM. The TGI in the experiment with MALME-3M melanoma came out at 36.2 µM; with HOP-62 NSCLC it was 12.1 µM; in the experiment on SR leukemia, 12.4 µM; with CCRF-CEM leukemia, 25.8 µM; with HCT-116 colon it was 0.502 µM; with UO-31 renal, 2.66 µM. Further, the TGI was above 100 µM with K-562 leukemia, 3.6 µM in the experiment on IGROV1 ovarian and 1.3 µM in the experiment on OVCAR-5 ovarian.

For the compound `Cc1cccc(Cl)c1NC(=O)c1cnc(Nc2cc(N3CCOCC3)cc(S(C)(=O)=O)c2)s1`, the GI50 with MALME-3M melanoma is above 4.16 µM; in the experiment on HOP-62 NSCLC, 0.198 µM; in the experiment on SR leukemia it was above 10 µM; in the experiment on CCRF-CEM leukemia, above 10 µM; in the experiment on HCT-116 colon, 0.313 µM; in the experiment with MCF7 breast, above 8.99 µM. For the same compound, the GI50 was 0.199 µM in the experiment on UO-31 renal, 0.00569 µM in the experiment on K-562 leukemia, 0.0541 µM with IGROV1 ovarian and 0.257 µM in the experiment on OVCAR-5 ovarian. Further, the TGI in the experiment on MALME-3M melanoma, with HOP-62 NSCLC, with SR leukemia, in the experiment with CCRF-CEM leukemia, in the experiment with HCT-116 colon and in the experiment on MCF7 breast was above 10 µM each time. Besides, the TGI was above 6.98 µM in the experiment on UO-31 renal, above 10 µM in the experiment with K-562 leukemia, 0.521 µM in the experiment on IGROV1 ovarian and above 10 µM in the experiment on OVCAR-5 ovarian.
